From US20200223889A1, “Bicyclic Compounds Capable of Binding to Melanocortin 4 Receptor” (Novo Nordisk A/S, priority 2017, published 2020)
Read-outs that look alike come from different tables or passages of the source. Starred links: 1 amine or outer side, 2 acyl side, 3 side chain; linkers in the order of their positions; H or OH if unused. Positions of bridges follow the written chain, without caps; N, C: chain ends. Non-standard residues stand in square brackets, D forms with d. Residues, ends and D or L forms follow the SMILES beside them. Hyp = O=C(O)[C@@H]1C[C@@H](O)CN1; Agp = N=C(N)NC[C@H](N)C(=O)O; Api = NC1(C(=O)O)CCNCC1; Ac4c = NC1(C(=O)O)CCC1; Aib = CC(C)(N)C(=O)O; CH2 = C([*:1])[*:2]; βAla = NCCC(=O)O

Assays:
human MC4R [1] = molecular target: T1, human MC4R (Homo sapiens, UniProt P32245); assay: 125NDP-α-MSH competitive binding to membranes of BHK cells expressing human MC4 receptor (filtration assay)
T1 construct: expressed in transfected cells
T1 sequence (P32245 whole entry): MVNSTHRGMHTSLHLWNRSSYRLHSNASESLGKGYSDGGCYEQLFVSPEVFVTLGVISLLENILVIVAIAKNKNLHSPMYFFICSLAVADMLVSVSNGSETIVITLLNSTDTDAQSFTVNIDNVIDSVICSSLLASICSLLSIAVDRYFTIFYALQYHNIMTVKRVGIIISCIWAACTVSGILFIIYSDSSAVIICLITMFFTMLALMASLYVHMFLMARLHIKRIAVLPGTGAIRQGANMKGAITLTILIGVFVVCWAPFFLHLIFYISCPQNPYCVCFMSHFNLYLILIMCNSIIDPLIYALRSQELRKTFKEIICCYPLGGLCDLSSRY
Method: In Vitro ^125NDP-α-MSH Binding to Recombinant BHK Cells Expressing Human MC4 Receptor (Filtration Assay)
In order to assess the binding affinity of the selected compounds for the human MC4R competitive binding assays was performed with radiolabeled NDP-alpha MSH (^125NDP-α-MSH).
The assay was performed in 96-well filterplates (Unifilter) using BHK cells stably expressing the human MC4 receptor.
The BHK cell membranes were prepared from frozen or fresh cells that were homogenized in 20 mM HEPES pH 7.1, 5 mM MgCl2, 1 mg/ml bacitracin (buffer 1) and centrifuged at 15000 rpm at 4° C., 10 min in a Sorvall RC 5B plus, SS-34 rotor. The supernatant was discarded, and the pellets were re-suspended in buffer 1, homogenized and centrifuged two more times. The final pellets were re-suspended in buffer 1 and the protein concentration was measured and adjusted with buffer 1 to 5 mg/ml and the membrane preparation was kept at −80° C. until assay. The assay was run on a dilution of this cell membrane suspension without any further preparation. The suspension was diluted to give maximally 10% specific binding, i.e. to approx. 50-100 fold dilution, optimized after each membrane preparation. The assay was performed in a total volume of 200 μl: 50 μl of cell suspension, 50 μl of ^125NDP-α-MSH (apx. […] in final concentration), 50 μl of test compound and 50 μl binding buffer were mixed and incubated for 2 h at 25° C. (binding buffer: 25 mM HEPES, pH 7.0, 1 mM CaCl2), 1 mM MgSO4, 1 mM EGTA, 0.005% Tween™ 20 and 0.1% HSA or, alternatively, 0.1% ovalbumin (Sigma; catalogue No. A-5503)). Test compounds were dissolved in 100% DMSO and diluted in binding buffer in a dose range from 1 μM to 0.001 nM. Radiolabelled ligand and membranes were diluted in binding buffer. The incubation was stopped by dilution with 8×100 μl ice-cold 0.9% NaCl. The radioactivity retained on the filters was counted using a Packard Topcounter. The data were analysed by non-linear regression analysis of binding curves, using the Windows™ program GraphPad™ Prism (GraphPad Software, USA).

human MC4R [2] = molecular target: T1, human MC4R; assay: Functional cAMP assay (CisBio HTRF) in BHK cells expressing human MC4R; type: cell-based; settings: for MC1R/MC4R cAMP EC50 ratio: MC1R cAMP EC50 divided by MC4R cAMP EC50
Method: In order to assess the potency of the compounds on human MC1R and human MC4R cAMP signalling was measured.
cAMP induction was measured by c-AMPdynamic2 assay, HTRF 62AM4PEC system from CisBio for the human MC1R and human MC4R according to the protocol provided by the vendor. BHK cells expressing the human MC1 or MC4 receptor were generated by stable transfection with expression vectors encoding the cDNA of either MC1R or MC4R.
In details; 25 μl compound—or standard solution were added in the respective wells. Compound was reconstituted in buffer (DMEM w/o phenol red, 10 mM
Hepes, lx Glutamine, 0.1% OV-albumin1, 1 mM IBMX) and serially diluted starting at 2 μM, 10-fold seven times. Dilutions were carried out in the same aforementioned buffer to the desired working concentration ranges (2× higher than the final concentration). 25 μl cell solution was then added and allowed to incubate for 30 min while lightly shaking, at 25° C. […] The provided components for the assay were reconstituted according to the CisBio assay protocol “3.1 supplied reagents and preparation procedure” in MilliQ purification system H2O and diluted 1:20 in lysis buffer. 25 μl cAMP-d2 and 25 μl Cryptate conjugate were added to all wells.
Plates were centrifuged at 1500 rpm for 30 sec and incubated for 1 h, lightly shaking, at 25° C. in a hotel stacker. The plates were read on Mithras LB 940 provided by Berthold Technologies The data were analysed by non-linear regression analysis of binding curves, using the Windows™ program GraphPad™ Prism (GraphPad Software, USA).
The latter is used when no full curve can be obtained in the concentration ranges indicated above.

[3] = human MC4R, BHK cell membranes, 125NDP-α-MSH radioligand, read-out: MC4R binding Ki
[4] = BHK cells expressing human MC4R, '>' = highest dose used with no response, read-out: MC4R cAMP EC50

Ki (human MC4R [1]; [3]) [nM] | EC50 (human MC4R [2]; [4]) [nM] | SMILES | MC1R/MC4R cAMP EC50 ratio (human MC4R [2]) | Ki (human MC4R [1]) [nM] | EC50 (human MC4R [2]) [nM]
0.12 | 0.09 | C[C@@H]1NC(=O)[C@@H]2CSSC[C@H](NC(=O)[C@H](Cc3c[nH]c4ccccc34)NC(=O)[C@H](CCCCN)NC(=O)[C@@H](Cc3ccccc3)NC(=O)[C@H](Cc3c[nH]cn3)NC1=O)C(=O)N[C@@H](C)C(=O)N[C@@H](Cc1c[nH]cn1)C(=O)N[C@H](Cc1ccccc1)C(=O)N[C@@H](CCCCN)C(=O)N[C@@H](Cc1c[nH]c3ccccc13)C(=O)N2 [Chem. 15, c[c[Cys-Ala-His-D-Phe-Lys-Trp-Cys]- Ala-His-D-Phe-Lys-Trp]] (cyclo(AH[dF]KWCAH[dF]KWC); disulfide 6-12) | 60 |  | 
0.38 | 0.12 | C[C@@H]1NC(=O)[C@@H]2CSSC[C@H](NC(=O)[C@H](Cc3c[nH]c4ccccc34)NC(=O)[C@H](CCCCN(C)C)NC(=O)[C@@H](Cc3ccccc3)NC(=O)[C@H](Cc3c[nH]cn3)NC1=O)C(=O)N[C@@H](C)C(=O)N[C@@H](Cc1c[nH]cn1)C(=O)N[C@H](Cc1ccccc1)C(=O)N[C@@H](CCCCN(C)C)C(=O)N[C@@H](Cc1c[nH]c3ccccc13)C(=O)N2 [Chem. 18, c[c[Cys-Ala-His-D-Phe-Lys(Me)2-Trp- Cys]-Ala-His-D-Phe-Lys(Me)2-Trp]] | 35 |  | 
 |  | N=C(N)NCCC[C@@H]1NC(=O)[C@@H](Cc2ccccc2)NC(=O)[C@H](Cc2c[nH]cn2)NC(=O)C2(CCC2)NC(=O)[C@@H]2CSSC[C@H](NC(=O)[C@H](Cc3c[nH]c4ccccc34)NC1=O)C(=O)NC1(CCC1)C(=O)N[C@@H](Cc1c[nH]cn1)C(=O)N[C@H](Cc1ccccc1)C(=O)N[C@@H](CCCNC(=N)N)C(=O)N[C@@H](Cc1c[nH]c3ccccc13)C(=O)N2 [Chem. 20, c[c[Cys-ACBC-His-D-Phe-Arg-Trp- Cys]-ACBC-His-D-Phe-Arg-Trp]] (cyclo([Ac4c]H[dF]RWC[Ac4c]H[dF]RWC); disulfide 6-12) | 124 | 0.15 | 0.04
0.04 | 0.02 | N=C(N)NCCC[C@@H]1NC(=O)[C@@H](Cc2ccccc2)NC(=O)[C@H](Cc2c[nH]cn2)NC(=O)CCNC(=O)[C@@H]2CSSC[C@H](NC(=O)[C@H](Cc3c[nH]c4ccccc34)NC1=O)C(=O)NCCC(=O)N[C@@H](Cc1c[nH]cn1)C(=O)N[C@H](Cc1ccccc1)C(=O)N[C@@H](CCCNC(=N)N)C(=O)N[C@@H](Cc1c[nH]c3ccccc13)C(=O)N2 [Chem. 25, c[c[Cys-βAla-His-D-Phe-Arg-Trp- Cys]-βAla-His-D-Phe-Arg-Trp]] (cyclo(C[βAla]H[dF]RWC[βAla]H[dF]RW); disulfide 1-7) | 17 |  | 
0.31 | 0.29 | CC1(C)NC(=O)[C@@H]2CSSC[C@H](NC(=O)[C@H](Cc3c[nH]c4ccccc34)NC(=O)[C@H](CCCCN)NC(=O)[C@@H](Cc3ccccc3)NC(=O)[C@H](Cc3c[nH]cn3)NC1=O)C(=O)NC(C)(C)C(=O)N[C@@H](Cc1c[nH]cn1)C(=O)N[C@H](Cc1ccccc1)C(=O)N[C@@H](CCCCN)C(=O)N[C@@H](Cc1c[nH]c3ccccc13)C(=O)N2 [Chem. 40, c[c[Cys-Aib-His-D-Phe-Lys-Trp-Cys]- Aib-His-D-Phe-Lys-Trp]] (cyclo([Aib]H[dF]KWC[Aib]H[dF]KWC); disulfide 6-12) | 38 |  | 
2.61 | 0.44 | CC1(C)NC(=O)[C@@H]2CSSC[C@H](NC(=O)[C@H](Cc3c[nH]c4ccccc34)NC(=O)[C@H](CNC(=N)N)NC(=O)[C@@H](Cc3ccccc3)NC(=O)[C@H](Cc3c[nH]cn3)NC1=O)C(=O)NC(C)(C)C(=O)N[C@@H](Cc1c[nH]cn1)C(=O)N[C@H](Cc1ccccc1)C(=O)N[C@@H](CNC(=N)N)C(=O)N[C@@H](Cc1c[nH]c3ccccc13)C(=O)N2 [Chem. 43, c[c[Cys-Aib-His-D-Phe-AGP-Trp- Cys]-Aib-His-D-Phe-AGP-Trp]] (cyclo([Agp]WC[Aib]H[dF][Agp]WC[Aib]H[dF]); disulfide 3-9) | 107 |  | 
 |  | N=C(N)NCCC[C@@H]1NC(=O)[C@@H](Cc2ccccc2)NC(=O)[C@H](Cc2c[nH]cn2)NC(=O)C2(CCNCC2)NC(=O)[C@@H]2CSSC[C@H](NC(=O)[C@H](Cc3c[nH]c4ccccc34)NC1=O)C(=O)NC1(CCNCC1)C(=O)N[C@@H](Cc1c[nH]cn1)C(=O)N[C@H](Cc1ccccc1)C(=O)N[C@@H](CCCNC(=N)N)C(=O)N[C@@H](Cc1c[nH]c3ccccc13)C(=O)N2 [Chem. 47, c[c[Cys-ACP-His-D-Phe-Arg-Trp- Cys]-ACP-His-D-Phe-Arg-Trp]] (cyclo([Api]H[dF]RWC[Api]H[dF]RWC); disulfide 6-12) | 23 | 0.72 | 0.12

SMILES | Ki (human MC4R [1]; [3]) [nM] | EC50 (human MC4R [2]; [4]) [nM] | MC1R/MC4R cAMP EC50 ratio (human MC4R [2]) | Ki (human MC4R [1]) [nM] | EC50 (human MC4R [2]) [nM]
N=C(N)NCCC[C@@H]1NC(=O)[C@@H](Cc2ccccc2)NC(=O)[C@@H]2C[C@@H](O)CN2C(=O)[C@@H]2CSCSC[C@H](NC(=O)[C@H](Cc3c[nH]c4ccccc34)NC1=O)C(=O)N1C[C@H](O)C[C@H]1C(=O)N[C@H](Cc1ccccc1)C(=O)N[C@@H](CCCNC(=N)N)C(=O)N[C@@H](Cc1c[nH]c3ccccc13)C(=O)N2 [Chem. 26, c[c[Cys-Hyp-D-Phe-Arg-Trp-Cys]- Hyp-D-Phe-Arg-Trp]] (cyclo(C[Hyp][dF]RWC[Hyp][dF]RW); linker 1-6 via CH2) | 0.44 |  | 96 |  | 
N=C(N)NCCC[C@@H]1NC(=O)[C@@H](Cc2ccccc2)NC(=O)[C@H](Cc2c[nH]cn2)NC(=O)[C@@H]2CCCN2C(=O)[C@@H]2CSSC[C@H](NC(=O)[C@H](Cc3c[nH]c4ccccc34)NC1=O)C(=O)N1CCC[C@H]1C(=O)N[C@@H](Cc1c[nH]cn1)C(=O)N[C@H](Cc1ccccc1)C(=O)N[C@@H](CCCNC(=N)N)C(=O)N[C@@H](Cc1c[nH]c3ccccc13)C(=O)N2 [Chem. 30, c[c[Cys-Pro-His-D-Phe-Arg-Trp-Cys]- Pro-His-D-Phe-Arg-Trp]] (cyclo(CPH[dF]RWCPH[dF]RW); disulfide 1-7) | 0.09 | 0.03 | 5 |  | 
CC(C)[C@H]1NC(=O)[C@@H]2CSSC[C@H](NC(=O)[C@H](Cc3c[nH]c4ccccc34)NC(=O)[C@H](CCCNC(=N)N)NC(=O)[C@@H](Cc3ccccc3)NC(=O)[C@H](Cc3c[nH]cn3)NC1=O)C(=O)N[C@H](C(C)C)C(=O)N[C@@H](Cc1c[nH]cn1)C(=O)N[C@H](Cc1ccccc1)C(=O)N[C@@H](CCCNC(=N)N)C(=O)N[C@@H](Cc1c[nH]c3ccccc13)C(=O)N2 [Chem. 34, c[c[Cys-D-Val-His-D-Phe-Arg-Trp- Cys]-D-Val-His-D-Phe-Arg-Trp]] (cyclo(C[dV]H[dF]RWC[dV]H[dF]RW); disulfide 1-7) | 0.88 | 0.12 | 22 |  | 
CC(C)[C@@H]1NC(=O)[C@@H]2CSSC[C@H](NC(=O)[C@H](Cc3c[nH]c4ccccc34)NC(=O)[C@H](CCCNC(=N)N)NC(=O)[C@@H](Cc3ccccc3)NC(=O)[C@H](Cc3c[nH]cn3)NC1=O)C(=O)N[C@@H](C(C)C)C(=O)N[C@@H](Cc1c[nH]cn1)C(=O)N[C@H](Cc1ccccc1)C(=O)N[C@@H](CCCNC(=N)N)C(=O)N[C@@H](Cc1c[nH]c3ccccc13)C(=O)N2 [Chem. 36, c[c[Cys-Val-His-D-Phe-Arg-Trp-Cys]- Val-His-D-Phe-Arg-Trp]] (cyclo(CVH[dF]RWCVH[dF]RW); disulfide 1-7) | 0.12 | 0.04 | 26 |  | 
